Measured values as given in patent US9771343B2, “2-alkyl-or-aryl-substituted tanshinone derivatives, and preparation method and application thereof” (Hangzhou Bensheng Pharmaceutical Co., Ltd., priority 2011, dated 2017).
Converted amounts (≈) assume the structure as drawn.

How the values were obtained:
[1] = tested on: CNE (nasopharyngeal carcinoma cell); assay: MTT cell growth inhibition, CNE cells, 72 h; format: cell-based, human; conditions: Homo sapiens, CNE, 72 h
Protocol: (§1) The standard sample of tanshinone I (TA) and the 2-alkyl- or 2-aromatic-substituted tanshinone I derivatives of the present invention are sufficiently dissolved in dimethylsulfoxide to produce a stock solution of 10 mg/mL, which is refrigerated at 4° C. and stored in dark, and is diluted with a cell culture medium to the desired concentration prior to experimentation.
(§2) Obtaining 6000 well-growing human solid tumor cells and inoculating them into wells of a 96-well cell culture plate. The culture medium is DMEM High Glucose cell culture medium containing 10% fetal bovine serum. The plate is placed in a carbon dioxide cell incubator (5% CO2) at 37° C. and incubated for 24 hours. After adding the 2-alkyl- or 2-aromatic-substituted tanshinone I derivatives of different concentrations and mixing uniformly, the plate is placed in a carbon dioxide cell incubator (5% CO2) at 37° C. and incubated for 72 hours. Then the viable cell concentration is determined by MTT method. In this experiment, the cell viability in control group (not treated with any compound) is set as 100%, and the cell viability (%) after treatment by the compounds and the half maximum inhibitory concentration for the leukemia cell at 72 hours (IC50 value of 72 hours, μg/mL) are calculated.

[2] = tested on: CaES-17 (esophageal cancer cell); assay: MTT cell growth inhibition, CaES-17 cells, 72 h; format: cell-based, human; conditions: Homo sapiens, CaEs17, CaEs-17, 72 h
Protocol: as §1, §2

[3] = tested on: NB4 (acute promyelocytic leukemia, AML); assay: MTT cell growth inhibition, NB4 leukemia cells, 72 h; format: cell-based; conditions: NB4, 72 h
Protocol: as §1, with “with” for “with a”, “to a” for “to the”
as §2, with “leukemia” for “human solid tumor”, “the RPMI-1640” for “DMEM High Glucose”, “serum.” for “serum. The plate is placed in a carbon dioxide cell incubator (5% CO2) at 37° C. and incubated for 24 hours.”, “adding on the second day” for “adding”, “uniformly, placing” for “uniformly,”, “plate” for “plate is placed”

[4] = tested on: MG63 (osteosarcoma); assay: MTT cell growth inhibition, MG63 cells, 72 h; format: cell-based, human; conditions: Homo sapiens, MG-63, 72 h
Protocol: as §1, §2

[5] = tested on: Jurkat (acute lymphoblastic leukemia, ALL); assay: MTT cell growth inhibition, Jurkat leukemia cells, 72 h; format: cell-based; conditions: Homo sapiens, 72 h
Protocol: as §1, with “with” for “with a”, “to a” for “to the”
as §2, with “leukemia” for “human solid tumor”, “the RPMI-1640” for “DMEM High Glucose”, “serum.” for “serum. The plate is placed in a carbon dioxide cell incubator (5% CO2) at 37° C. and incubated for 24 hours.”, “adding on the second day” for “adding”, “uniformly, placing” for “uniformly,”, “plate” for “plate is placed”

[6] = tested on: PANC-1 (pancreatic cancer); assay: MTT cell growth inhibition, PANC-1 cells, 72 h; format: cell-based, human; conditions: Homo sapiens, PANC-1, 72 h
Protocol: as §1, §2

[7] = tested on: U87 MG (malignant glioma cell); assay: MTT cell growth inhibition, U87 MG cells, 72 h; format: cell-based, human
Protocol: as §1, §2

[8] = tested on: MGC 803 (human gastric cancer cell); assay: MTT cell growth inhibition, MGC 803 cells, 72 h; format: cell-based; conditions: Homo sapiens, MGC-803, 72 h
Protocol: as §1, §2

[9] = tested on: RKO (human colon adenocarcinoma cell); assay: MTT cell growth inhibition, RKO cells, 72 h; format: cell-based; conditions: Homo sapiens, RKO, 72 h
Protocol: as §1, §2

[10] = tested on: Becap37 (human breast cancer cell); assay: MTT cell growth inhibition, Becap37 cells, 72 h; format: cell-based; conditions: Homo sapiens, Becap-37, 72 h
Protocol: as §1, §2

[11] = tested on: Hep G2 (human liver cancer cell); assay: MTT cell growth inhibition, Hep G2 cells, 72 h; format: cell-based; conditions: Homo sapiens, HepG2, Hep G2, 72 h
Protocol: as §1, §2

[12] = tested on: A549 (human lung cancer); assay: MTT cell growth inhibition, A549 cells, 72 h; format: cell-based; conditions: Homo sapiens, A549, 72 h
Protocol: as §1, §2

[13] = tested on: PC-3 (prostate cancer); assay: MTT cell growth inhibition, PC-3 cells, 72 h; format: cell-based, human; conditions: Homo sapiens, PC-3, 72 h
Protocol: as §1, §2

[14] = tested on: H9 (acute lymphoblastic leukemia, ALL); assay: MTT cell growth inhibition, H9 leukemia cells, 72 h; format: cell-based; conditions: H9, 72 h
Protocol: as §1, with “with” for “with a”, “to a” for “to the”
as §2, with “leukemia” for “human solid tumor”, “the RPMI-1640” for “DMEM High Glucose”, “serum.” for “serum. The plate is placed in a carbon dioxide cell incubator (5% CO2) at 37° C. and incubated for 24 hours.”, “adding on the second day” for “adding”, “uniformly, placing” for “uniformly,”, “plate” for “plate is placed”

[15] = tested on: SK-OV-3 (ovarian cancer cell); assay: MTT cell growth inhibition, SK-OV-3 cells, 72 h; format: cell-based, human; conditions: Homo sapiens, SK-OV-3, 72 h
Protocol: as §1, §2

[16] = tested on: Hep-2 (laryngeal carcinoma); assay: MTT cell growth inhibition, Hep-2 cells, 72 h; format: cell-based, human; conditions: Homo sapiens, HEp-2, 72 h
Protocol: as §1, §2

[17] = tested on: K562/adr (drug-resistant, chronic myeloid leukemia, CML); assay: MTT cell growth inhibition, K562/adr leukemia cells, 72 h; format: cell-based; conditions: Homo sapiens, K562/Adr
Protocol: as §1, with “with” for “with a”, “to a” for “to the”
as §2, with “leukemia” for “human solid tumor”, “the RPMI-1640” for “DMEM High Glucose”, “serum.” for “serum. The plate is placed in a carbon dioxide cell incubator (5% CO2) at 37° C. and incubated for 24 hours.”, “adding on the second day” for “adding”, “uniformly, placing” for “uniformly,”, “plate” for “plate is placed”

[18] = tested on: RPMI8226 (multiple myeloma); assay: MTT cell growth inhibition, RPMI8226 multiple myeloma cells, 72 h; format: cell-based, human; conditions: Homo sapiens, RPMI 8226, 72 h
Protocol: as §1, with “with” for “with a”, “to a” for “to the”
as §2, with “leukemia” for “human solid tumor”, “the RPMI-1640” for “DMEM High Glucose”, “serum.” for “serum. The plate is placed in a carbon dioxide cell incubator (5% CO2) at 37° C. and incubated for 24 hours.”, “adding on the second day” for “adding”, “uniformly, placing” for “uniformly,”, “plate” for “plate is placed”

[19] = tested on: Kasumi-1 (acute myeloid leukemia M2 type, AML-M2); assay: MTT cell growth inhibition, Kasumi-1 leukemia cells, 72 h; format: cell-based; conditions: Homo sapiens, Kasumi-1, 72 h
Protocol: as §1, with “with” for “with a”, “to a” for “to the”
as §2, with “leukemia” for “human solid tumor”, “the RPMI-1640” for “DMEM High Glucose”, “serum.” for “serum. The plate is placed in a carbon dioxide cell incubator (5% CO2) at 37° C. and incubated for 24 hours.”, “adding on the second day” for “adding”, “uniformly, placing” for “uniformly,”, “plate” for “plate is placed”

[20] = tested on: Hela (human cervical cancer cell); assay: MTT cell growth inhibition, Hela cells, 72 h; format: cell-based; conditions: Homo sapiens, HeLa, 72 h
Protocol: as §1, §2

Cc1c(-c2ccccc2Cl)oc2c1C(=O)C(=O)c1c-2ccc2c(C)cccc12 [BS-TA-04]
IC50 ([1]; read-out: IC50): 10.5 µg/mL (≈ 27.1 µM) | IC90 ([1]; read-out: IC90): > 16 µg/mL | IC50 ([2]; read-out: IC50): 11 µg/mL (≈ 28.5 µM) | IC90 ([2]; read-out: IC90): 28.8 µg/mL (≈ 74.5 µM) | IC50 ([3]; read-out: IC50): 4.09 µg/mL (≈ 10.6 µM) | IC90 ([3]; read-out: IC90): 11.2 µg/mL (≈ 29 µM) | IC50 ([4]; read-out: IC50): 10.3 µg/mL (≈ 26.7 µM) | IC90 ([4]; read-out: IC90): > 16 µg/mL | IC50 ([5]; read-out: IC50): 4.83 µg/mL (≈ 12.5 µM) | IC90 ([5]; read-out: IC90): 9.72 µg/mL (≈ 25.1 µM) | IC50 ([6]; read-out: IC50): 9.8 µg/mL (≈ 25.3 µM) | IC90 ([6]; read-out: IC90): > 16 µg/mL | IC50 ([7]; Homo sapiens, U-87 MG, U87-MG, 72 h, read-out: IC50): 5.73 µg/mL (≈ 14.8 µM) | IC90 ([7]; Homo sapiens, U-87 MG, U87-MG, 72 h, read-out: IC90): 19.2 µg/mL (≈ 49.6 µM) | anti-U87 MG activity (in words) ([7]; Table 2): superior to that of tanshinone I per se | IC50 ([8]; read-out: IC50): 8.88 µg/mL (≈ 23 µM) | IC90 ([8]; read-out: IC90): 23.9 µg/mL (≈ 61.9 µM) | IC50 ([9]; read-out: IC50): 5.01 µg/mL (≈ 13 µM) | IC90 ([9]; read-out: IC90): > 16 µg/mL | IC50 ([10]; read-out: IC50): 9.34 µg/mL (≈ 24.1 µM) | IC90 ([10]; read-out: IC90): > 16 µg/mL | IC50 ([11]; read-out: IC50): 14.5 µg/mL (≈ 37.4 µM) | IC90 ([11]; read-out: IC90): > 16 µg/mL | IC50 ([12]; read-out: IC50): 6.92 µg/mL (≈ 17.9 µM) | IC90 ([12]; read-out: IC90): > 16 µg/mL | IC50 ([13]; read-out: IC50): > 16 µg/mL | IC90 ([13]; read-out: IC90): > 16 µg/mL | IC50 ([14]; read-out: IC50): 6.7 µg/mL (≈ 17.3 µM) | IC90 ([14]; read-out: IC90): > 16 µg/mL | IC50 ([15]; read-out: IC50): > 16 µg/mL | IC90 ([15]; read-out: IC90): > 16 µg/mL | IC50 ([16]; read-out: IC50): 11.6 µg/mL (≈ 30.1 µM) | IC90 ([16]; read-out: IC90): > 16 µg/mL | IC50 ([17]; read-out: IC50): 15.5 µg/mL (≈ 40.1 µM) | IC90 ([17]; read-out: IC90): > 16 µg/mL | IC50 ([18]; read-out: IC50): 4 µg/mL (≈ 10.3 µM) | IC90 ([18]; read-out: IC90): 16.1 µg/mL (≈ 41.5 µM) | IC50 ([19]; read-out: IC50): > 16 µg/mL | IC90 ([19]; read-out: IC90): > 16 µg/mL | IC50 ([20]; read-out: IC50): 5.5 µg/mL (≈ 14.2 µM) | IC90 ([20]; read-out: IC90): 22.2 µg/mL (≈ 57.4 µM)
